Assay results as given in paper PMC10384011, “m-Terphenylamines, Acting as Selective COX-1 Inhibitors, Block Microglia Inflammatory Response and Exert Neuroprotective Activity” (Molecules, 2023).

Tests used:
ovine COX-1 = molecular target: T1, ovine COX-1 (Ovis aries, UniProt P05979); test: Cyclooxygenase colorimetric inhibitor screening assay, COX-1; assay type: biochemical; details: for inhibition at 50 µM: ovine COX-1, 50 µM, % Inhibition at 50 µM (converted); for inhibition at 50 µM / IC50: read-out: oCOX-1; for IC50: ovine COX-1, colorimetric kit, triplicate;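 for all read-outs here: COX peroxidase activity read colorimetrically as oxidized TMPD at 590 nm, arachidonic acid as substrate, inhibitors tested at 0.001–50 µM from DMSO stocks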
T1 construct: purchased Cayman Chemicals 701050
T1 sequence (P05979 25-600): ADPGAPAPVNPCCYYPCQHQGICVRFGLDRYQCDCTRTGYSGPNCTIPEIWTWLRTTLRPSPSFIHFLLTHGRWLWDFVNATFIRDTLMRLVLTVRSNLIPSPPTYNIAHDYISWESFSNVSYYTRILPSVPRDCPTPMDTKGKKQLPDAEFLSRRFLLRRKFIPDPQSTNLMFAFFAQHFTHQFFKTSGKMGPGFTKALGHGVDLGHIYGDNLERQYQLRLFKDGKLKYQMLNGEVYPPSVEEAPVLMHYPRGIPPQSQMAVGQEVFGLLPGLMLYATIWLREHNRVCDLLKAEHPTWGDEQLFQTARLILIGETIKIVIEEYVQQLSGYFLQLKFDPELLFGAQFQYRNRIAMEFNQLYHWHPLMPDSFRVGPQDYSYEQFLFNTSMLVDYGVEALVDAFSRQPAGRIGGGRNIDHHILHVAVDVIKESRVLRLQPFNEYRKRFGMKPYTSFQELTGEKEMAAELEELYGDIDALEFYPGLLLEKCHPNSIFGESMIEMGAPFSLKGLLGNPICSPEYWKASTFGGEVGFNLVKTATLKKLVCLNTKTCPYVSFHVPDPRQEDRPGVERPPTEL
Description: (§2) Newly synthesized compounds were evaluated for their ability to inhibit ovine COX-1 or human COX-2 enzyme by measuring the extent (%) of enzyme activity inhibition at different concentrations (0.001, 0.01, 0.1, 1, 10, 50 μM). […] The assay kit measures the peroxidase component of COXs that is assayed colorimetrically by monitoring the appearance of oxidized N,N,N′,N′-tetramethyl-p-phenylenediamine (TMPD) a λ = 590 nm. […] Stock solutions of test compounds were dissolved in DMSO.

human COX-2 = molecular target: T2, human COX-2 (Homo sapiens, UniProt P35354); test: Cyclooxygenase colorimetric inhibitor screening assay, COX-2; assay type: biochemical; details: read-out: hCOX-2; for inhibition at 50 µM: human COX-2, 50 µM; for IC50: human COX-2, colorimetric kit;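 for all read-outs here: peroxidase activity of COX-2 followed colorimetrically through formation of oxidized TMPD at 590 nm, with arachidonic acid as substrate, compounds tested from 0.001 to 50 µM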
T2 construct: purchased Cayman Chemicals 701050
T2 sequence (P35354 18-604): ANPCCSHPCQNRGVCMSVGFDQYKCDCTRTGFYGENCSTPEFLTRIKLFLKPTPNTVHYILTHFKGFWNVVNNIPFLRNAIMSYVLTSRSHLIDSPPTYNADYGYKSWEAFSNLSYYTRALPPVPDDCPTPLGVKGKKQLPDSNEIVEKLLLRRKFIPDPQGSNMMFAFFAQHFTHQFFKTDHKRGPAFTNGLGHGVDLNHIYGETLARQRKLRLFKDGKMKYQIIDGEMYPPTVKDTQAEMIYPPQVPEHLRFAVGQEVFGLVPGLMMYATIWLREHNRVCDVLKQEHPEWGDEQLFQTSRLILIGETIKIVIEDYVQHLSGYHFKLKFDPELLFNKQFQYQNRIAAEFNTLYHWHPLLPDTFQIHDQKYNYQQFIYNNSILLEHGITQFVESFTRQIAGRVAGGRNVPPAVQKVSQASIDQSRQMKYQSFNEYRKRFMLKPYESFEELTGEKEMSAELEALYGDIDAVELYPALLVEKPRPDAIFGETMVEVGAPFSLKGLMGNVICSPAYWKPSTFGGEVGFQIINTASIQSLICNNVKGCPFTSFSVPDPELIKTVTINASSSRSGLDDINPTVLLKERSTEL
Description: as §2

BV2 microglia cells [1] = test: Nitrite release (Griess reaction) in LPS-treated BV2 microglia; assay type: cell-based; details: LPS 1 μg/mL, basal = 100
Description: The COX-1 inhibition data prompted us to undertake further work on the activity of compounds 3 in a neuroinflammation situation. Once we had verified that the compounds studied were not toxic per se in microglia BV2 cells (see the data in Table S1), we measured the nitrites released to determine the efficacy of our compounds in reducing microglia activation. Nitric oxide is a potent mediator of the classic activated microglia phenotype (M1); in fact, the lack of nitrite release correlated with an anti-inflammatory microglia (M2) phenotype. Therefore, we evaluated the response of the BV2 microglia cells to a challenge of 1 μg/mL LPS. For this purpose, BV2 microglia cells were incubated with LPS, a well-known agonist of the toll-like receptor 4 (TLR4) that causes a neuroinflammatory response, in combination with increasing concentrations of our COX-1 inhibitors (1, 3, and 10 μM). […] Similar results were observed after 48 h of the LPS treatment.
(§1) Cultures were seeded into flasks containing supplemented medium and kept at 37 °C in a humidified atmosphere of 5% CO2 and 95% air. For assays, BV-2 cells were subcultured in 48-well plates at a seeding density of 1 × 10^5 cells per well. Cells were treated with LPS (Sigma-Aldrich, Madrid, Spain) for 24 or 48 h before confluence in RPMI with 1% FBS.
The NO assay was performed using the previously reported protocols. Briefly, 100 μL of culture supernatants were mixed with the same volume of Griess assay regent (1% sulfanilamide (Sigma Aldrich, Madrid, Spain), 0.1% naphthylethylenediamine dihydrochloride, and 2.5% phosphoric acid). Ten minutes later, the 560-nm absorbance was measured.

BV2 microglia cells [2] = test: LPS-induced activated (ramified) phenotype of BV2 microglia; assay type: cell-based; details: LPS 1 μg/mL, 24 h
Description: Next, we set out to study the changes in microglia phenotype under this toxicity protocol. As mentioned above, microglia are comprised of variable morphology cells that are always adapting to the surrounding media and, therefore, to physiopathological conditions. Indeed, morphological appearance is well correlated with the different states of microglia activation. The microglia-activated phenotype (M1), which is the classical state of this kind of cell in response to proinflammatory insults such as LPS, is linked with the overexpression of a plethora of cytokines and inflammatory markers, namely TNF, IL-1β, IL-6, MCP-1 or CD11b. All of these markers are commonly associated with morphological changes towards an amoeboid phenotype in primary cultures or in in vivo studies. Nevertheless, it has been recently described that BV2 microglia, as well as macrophages, turn from rounded to spindle-shaped or multipolar phenotypes in response to various M1 proinflammatory stimuli such as LPS/IFNγ or spinal cord injury conditioned media. In this context, we assessed the ability of our compounds to prevent the morphological changes induced by LPS by analyzing the percentage of BV2 ramified cells (multipolar or spindle) over the total BV2 per field following cell incubation with our compounds and 1 μg/mL LPS for 24 h.
as §1

BV2 microglia cells [3] = test: ROS production (H2DCFDA) in LPS-treated BV2 microglia; assay type: cell-based; details: LPS 1 μg/mL, 24 h
Description: Activation of toll-like receptors (TLRs), particularly the TLR4 subtype, is closely associated with the production of reactive oxygen and nitrogen species that contribute to neuronal death in the CNS. In this connection, NADPH oxidase enzymes are the main ones responsible for ROS production induced by NF-κB nuclear translocation. For this reason, we decided to assess the ROS levels of BV2 microglia cells treated with LPS and the effect of our compounds under this toxicity protocol. To this end, the compounds, at different concentrations (3 μM of 3a, 3b, and 3d and 10 μM of 3c) were incubated with 1 μg/mL LPS for 24 h. After this period, ROS production was measured with the fluorescent probe H2DCFDA. Treatment with LPS increased by 1.75-fold the amount of ROS compared with control cells.
as §1
To measure cellular ROS, we used the molecular probe 2′,7′-dichlorodihydrofluorescein diacetate (H2DCFDA). Glial cells were loaded with 5 µM H2DCFDA as it was previously described (Parada et al., 2015). Fluorescence was measured in a fluorescence microplate reader (FLUOstar Galaxy; BMG Labtech, Offenburg, Germany). Wavelengths of excitation and emission were 485 and 520 nm, respectively. The relative pixel intensity was measured in identical regions with (ImageJ 1.52a software, National Institutes of Health, Bethesda, MD, USA).

[4] = system: organotypic hippocampal cultures (OHCs); test: Cell death (propidium iodide uptake, CA1) in organotypic hippocampal cultures treated with LPS; assay type: cell-based, Sprague-Dawley rats; details: LPS 1 μg/mL, 24 h
Description: With these promising data in hand, we selected compound 3b for its study in a more complex preparation. In vivo administration of LPS produces a proinflammatory cascade that causes memory deficits, an increase of inflammatory markers, and impairment of hippocampal glutamatergic transmission, contributing to neuronal death. All of these functional changes have been described to take place mainly in the hippocampus region. Thus, we subjected organotypic hippocampal cultures (OHCs) to LPS (1 μg/mL) to assess the protective effect of COX-1 inhibition. This kind of explant allows us to study the microglia-neuron network in a more complex and physiological model of cerebral insult.
OHCs were conducted on 8–10-day-old Sprague-Dawley rats supplied by the animal facilities of Universidad Autónoma de Madrid (Madrid, Spain). Cultures were prepared according to the methods described by Stoppini et al. with some modifications. […]
Cell death was determined in the CA1 region by staining the OHCs with propidium iodide (PI). Thirty minutes before analyzing fluorescence, slices were incubated with PI (1 µg/mL). Fluorescence was measured in an epifluorescence Olympus BX50WI microscope. […] Fluorescence was measured in each slice using ImageJ.

BV2 microglia cells [5] = test: Nitrite release (Griess reaction) in LPS-treated BV2 microglia; assay type: cell-based; details: 100 nM, LPS 1 μg/mL, basal = 100

SMILES	inhibition at 50 µM (ovine COX-1) [%]	IC50 (ovine COX-1) [µM]	COX-1/COX-2 inhibition ratio (ovine COX-1; ovine COX-1 vs human COX-2)	inhibition at 50 µM (human COX-2) [%]	IC50 (human COX-2) [µM]	Nitrite Release after 24 h (BV2 microglia cells [1]; 1 μM) [%]	Nitrite Release after 48 h (BV2 microglia cells [1]; 1 μM) [%]	Nitrite Release after 24 h (BV2 microglia cells [1]; 3 μM) [%]	Nitrite Release after 48 h (BV2 microglia cells [1]; 3 μM) [%]	Nitrite Release after 24 h (BV2 microglia cells [1]; 10 μM) [%]	Nitrite Release after 48 h (BV2 microglia cells [1]; 10 μM) [%]	Reduction of the number of BV2 ramified cells (BV2 microglia cells [2]; 3 μM) [%]	ROS production induced by LPS (BV2 microglia cells [3]; 3 μM)	COX-1 selectivity (in words) (ovine COX-1; ovine COX-1 vs human COX-2)	Reduction of the number of BV2 ramified cells (BV2 microglia cells [2]; 10 μM) [%]	ROS production induced by LPS (BV2 microglia cells [3]; 100 nM)	Cell death (PI uptake in CA1) induced by LPS [4]	Nitrite Release after 24 h (BV2 microglia cells [5]; 24 h) [%]	Nitrite Release after 48 h (BV2 microglia cells [5]; 48 h) [%]
Nc1cc(-c2ccccc2)cc(-c2ccccc2)c1 [Compound 3a, 5′-Amino-m-terphenyl]	86	0.8 ± 0.39	around 7	70	5.4	130 ± 14	145 ± 17	110 ± 7	119 ± 10	122 ± 10	120 ± 15	60	significantly reverted ROS production almost to basal levels						
Nc1cc(-c2ccccc2)cc(-c2ccc(Cl)cc2)c1 [Compound 3c, 4-Chloro-5′-amino-m-terphenyl]	100	4.7 ± 3.04			> 50	135 ± 6	181 ± 9	117 ± 8	163 ± 5	110 ± 6	138 ± 7		significantly reverted ROS production almost to basal levels	complete selectivity towards COX-1	60				
COc1ccc(-n2nc(C(F)(F)F)cc2-c2ccc(Cl)cc2)cc1 [SC-560, reference compound]																significantly reverted ROS production almost to basal levels	prevented	114 ± 9	135 ± 8
COc1ccc(-c2cc(N)cc(-c3ccccc3)c2)cc1 [Compound 3e, 4-Methoxy-5′-amino-m-terphenyl]	73	0.9 ± 0.76		8		124 ± 9	144 ± 15	110 ± 6	133 ± 13	103 ± 9	131 ± 13	60							
